# Read-outs that look alike come from different tables or passages of the source. Where a SMILES comes first, the peptide text is derived from it. The star is where a group is joined. Cbz = O=C(OCc1ccccc1)*
# Experiments:
# [1] = system: constitutively expressed luciferase; experiment: CMV-luc control reporter in irradiated 4T1 tumors in nude mice; format: in vivo; conditions: 4T1-luc tumors, 6 Gy, with or without L-NAME
# Source text: Plasmids and cloning procedures. The HIF-1α bioluminescence reporter (ODD-luc) construct was created by fusing PCR product of ODD domain of HIF-1α (GENBANK® Accession No. U59496) to the 5′ end of firefly luciferase reporter gene. Along with this construct, a luciferase expression vector in which luciferase gene was driven by the CMV promoter was used as a control. […] ODD fragments with or without the mutation were cloned into pCMV-3Tag-4B Epitope Tagging Mammalian Expression vector (Stratagene, La Jolla, Calif., United States of America). The full length mouse VHL gene (GENBANK® Accession No. S76748) was cloned form mouse tissue and tagged with HA tag by PCR. All constructs were sequence-verified.
# Imaging luciferase activity.
# (§1) Animal experiments. […] Drinking water was renewed daily until animal sacrifice.
# tumor vasculature = experiment: CD31 vessel staining / vascular density in tumors; format: in vivo, mice; conditions: 4T1 and B16F10 tumors excised on day 10
# Protocol: Vessel staining was performed on tumor cryoslices by using the VECTASTAIN® ABC and the NOVARED™ kits from Vector Laboratories (Burlingame, Calif., United States of America), according to the manufacturer's protocol. The primary anti-CD31 antibody (Santa Cruz Biotechnology, Santa Cruz, Calif.) was labeled with a secondary biotinylated anti-rabbit antibody (Jackson ImmunoResearch Labs, Inc.). Slices were counterstained using Harris' hematoxilin. Vascular density was determined by counting CD31-positive structures in 5 random fields per tumor.
# B16F10 (murine melanoma) = experiment: Tumor growth delay with radiotherapy, B16F10 tumors; format: in vivo; conditions: syngeneic C57BL/6 mice, 3 fractions of 6 Gy every other day, L-NAME in drinking water
# Source text: as §1
# (§2) Statistics. Student's t test, one-way and two-way ANOVA were used where indicated. In growth delay experiments, the numbers of days for tumors to reach 5× their initial volume were used for comparing different treatment groups.
# [2] = system: 4T1 (murine mammary adenocarcinoma); experiment: Tumor growth delay with radiotherapy, 4T1 tumors; format: in vivo; conditions: syngeneic mice, 3 fractions of 6 Gy every other day, L-NAME in drinking water
# Source text: as §1, §2
# HIF-1α [3] = format: cell-based, murine
# HIF-1α [4] = experiment: Radiation-induced ODD-luc in 4T1 tumors in macrophage-depleted nude mice; format: in vivo; conditions: 4T1-ODD-luc tumors, carrageenan 2 mg i.p. repeated, 6 Gy
# Protocol: Imaging luciferase activity. Luciferase expression/activity was detected and quantified as relative light units (RLUs) by using the Xenogen IVIS™ imaging system and associated LIVING IMAGE® software (Xenogen, Alameda, Calif., United States of America). […] For in vivo experiments, treated tumor-bearing mice received an i.p. injection of luciferin (150 mg/kg) during isofluorane anesthesia. Repeated images of luciferase expression/activity were acquired following manufacturer's specified procedures.
# Animal experiments. Female NIH Swiss nude mice, C57BL/6 mice were purchased from the National Cancer Institute (NCI; Fredrick, Md., United States of America). Mice with a genetic disruption of the inducible nitric acid synthase gene (C57BL/6 iNOS^−/−) were obtained from the Jackson Laboratory (Bar Harbor, Me., United States of America). Female BALB/c mice were obtained from Charles River Laboratories (Raleigh, N.C., United States of America). Animals were maintained and cared for in accordance with the Duke University Institutional Animal Care and Use Committee guidelines. For tumor implantation, 4T1 tumors were grown in nude mice or in syngeneic BALB/c mice, and B16F10 melanoma in syngeneic C57BL/6 or iNOS^−/− mice. […]
compound,measurement,setting,value
"COC(=O)[C@@H](N)CCCNC(=N)N[N+](=O)[O-] [L-NAME, Nω-nitro-L-arginine methyl ester]",activity of constitutively expressed luciferase (CMV-luc control),[1],did not influence the activity of constitutively expressed luciferase activity
same,"tumor vasculature (CD31+ vascular density), L-NAME with radiotherapy",tumor vasculature,significantly reduced tumor vasculature
same,"tumor growth delay, L-NAME with radiotherapy",B16F10 (murine melanoma),significantly enhanced the therapeutic efficacy of radiotherapy
same,"tumor growth delay, L-NAME with radiotherapy",[2],significantly enhanced the therapeutic efficacy of radiotherapy
"CC1(C)N([O])C(c2ccc(C(=O)[O-])cc2)=[N+]([O-])C1(C)C.[K+] [carboxy-PTIO, potassium 2-(4-carboxyphenyl)-4,4,5,5-tetramethylimidazoline-1-oxyl-3-oxide]",suppression of GSNO-induced HIF-1α activation (ODD-luc),HIF-1α [3],effectively suppressed HIF-1α activation by GSNO
[Cl-].[Cl-].[Co+2] [CoCl2],luminescence from ODD-luc reporter gene expression,HIF-1α [3],rose significantly
CC(C)C[C@@H](C=O)NC(=O)[C@H](CC(C)C)NC(=O)[C@H](CC(C)C)NC(=O)OCc1ccccc1 [MG132] (Cbz-Leu-Leu-Leu-aldehyde),luminescence from ODD-luc reporter gene expression,"HIF-1α [3]; CoCl2 240 μM for 12 hrs, MG132 10 μM for 12 hrs, versus background",rose significantly
carrageenan,radiation-induced ODD-luc activation after macrophage depletion,HIF-1α [4],significant reduction in radiation-induced ODD-luc activation

# Source: patent US8968702B2, “Inhibition of HIF-1 activation for anti-tumor and anti-inflammatory responses” (Duke University, priority 2006, dated 2015)
